According to article PMC6662551 (Clinical and Translational Science, 2019):
Where “and” joins values, the source holds several entries; their conditions need not be identical. Equal entries are not always repeated. Where two headings read alike, the source gives them in different places. Blank lines part the entries; values can stand above or below the compound they belong to.

Assays:
[1] = for AUC(0-t): AUC0→12, text, pravastatin peak only; for ratio of mean AUC0→12 in SLCO1B1 c.521CC and c.521TT: named peak only
[2] = assay type: in vivo, human; details: for AUClast: 0.25-12 hour; for ratio of mean AUC in SLCO1B1 c.521‐CC to c.521TT: endogenous biomarker; for C0: plasma
OATP1B1 = assay type: in vivo, human; details: human, plasma, oral; for AUC(0-t): AUClast, 0.25-12 hour; for C0: C0, plasma, baseline
[3] = system: 3‐hydroxy‐3‐methylglutaryl coenzyme A reductase; details: relative to pravastatin; cited from earlier work
[4] = pravastatin + cyclosporine, all genotype (N = 16)
[5] = pravastatin + placebo, TT (N = 8)
[6] = pravastatin + placebo, all genotype (N = 16)
[7] = 12 hours after first CsA dose, pravastatin + cyclosporine, all genotype
[8] = baseline, pravastatin + placebo, all genotype
[9] = pravastatin + cyclosporine (N = 16)
[10] = pravastatin + cyclosporine, CC (N = 2)
[11] = pravastatin + cyclosporine, TC (N = 6)
[12] = pravastatin + cyclosporine, TT (N = 8)
[13] = pravastatin + placebo, CC (N = 2)
[14] = pravastatin + placebo, TC (N = 6)

- Tmax ([1]; human, plasma, oral, 40 mg): 1.5 h
- AUC(0-t) ([1]; human, plasma, oral, 40 mg, pravastatin + placebo, TC): 48 ± 23 ng·h/mL
- AUC(0-t) ([1]; human, plasma, oral, 40 mg, pravastatin + placebo, c.521‐TT): 43 ± 15 ng·h/mL
- CL/F ([1]; human, plasma, oral, pravastatin + cyclosporine, CC (N = 3)): 10.7 mL/min/kg
- CL/F ([1]; human, plasma, oral, pravastatin + cyclosporine, TC (N = 8)): 24.2 mL/min/kg
- CL/F ([1]; human, plasma, oral, pravastatin + cyclosporine, TT (N = 9)): 24.5 mL/min/kg
- CL/F ([1]; human, plasma, oral, pravastatin + cyclosporine, all genotype): 22.3 mL/min/kg
- CL/F ([1]; human, plasma, oral, pravastatin + placebo, CC (N = 3)): 27.5 mL/min/kg
- CL/F ([1]; human, plasma, oral, pravastatin + placebo, TC (N = 8)): 90.3 mL/min/kg
- CL/F ([1]; human, plasma, oral, pravastatin + placebo, TT (N = 9)): 102 mL/min/kg
- CL/F ([1]; human, plasma, oral, pravastatin + placebo, all genotype): 86.2 mL/min/kg
- ratio of mean AUC0→12 in SLCO1B1 c.521CC and c.521TT [1]: 3.6 fold
- Cmax ([1]; named peak only (not combined), pravastatin + placebo, TC (N=8)): 31 ± 19 ng/mL
- V/F ([1]; pravastatin + cyclosporine, CC (N = 3)): 0.85 ± 0.70 L/kg
- V/F ([1]; pravastatin + cyclosporine, TC (N = 8)): 1.52 ± 0.54 L/kg
- V/F ([1]; pravastatin + cyclosporine, TT (N = 9)): 1.92 ± 1.34 L/kg
- V/F ([1]; pravastatin + cyclosporine, all genotype): 1.60 ± 1.02 L/kg
- V/F ([1]; pravastatin + placebo, CC (N = 3)): 1.94 ± 1.37 L/kg
- V/F ([1]; pravastatin + placebo, TC (N = 8)): 9.49 ± 9.08 L/kg
- V/F ([1]; pravastatin + placebo, TT (N = 9)): 9.56 ± 8.74 L/kg
- V/F ([1]; pravastatin + placebo, all genotype): 8.39 ± 8.39 L/kg
Compound: CC[C@H](C)C(=O)O[C@H]1C[C@H](O)C=C2C=C[C@H](C)[C@H](CC[C@@H](O)C[C@@H](O)CC(=O)O)[C@H]21 [pravastatin]

- AUClast [2, 4]: 0.902 ± 0.378 µM·h
- AUClast [2, 5]: 0.448 ± 0.153 µM·h
- AUClast [2, 6]: 0.593 ± 0.489 µM·h
- C0 fold increase, pravastatin plus CsA over pravastatin plus placebo ([2]; CC): 0.7 fold
- AUClast fold increase, pravastatin plus CsA over pravastatin plus placebo ([2]; CC (N = 2)): 0.9 fold
- Cavg fold increase, pravastatin plus CsA over pravastatin plus placebo ([2]; CC (N = 2)): 0.9 fold
- C0 fold increase, pravastatin plus CsA over pravastatin plus placebo ([2]; TC): 1.4 fold
- AUClast fold increase, pravastatin plus CsA over pravastatin plus placebo ([2]; TC (N = 6)): 1.7 fold
- Cavg fold increase, pravastatin plus CsA over pravastatin plus placebo ([2]; TC (N = 6)): 1.8 fold
- C0 fold increase, pravastatin plus CsA over pravastatin plus placebo ([2]; TT): 2.1 fold
- AUClast fold increase, pravastatin plus CsA over pravastatin plus placebo ([2]; TT (N = 8)): 2.2 fold
- Cavg fold increase, pravastatin plus CsA over pravastatin plus placebo ([2]; TT (N = 8)): 2.5 fold
- Cavg fold increase, pravastatin plus CsA over pravastatin plus placebo ([2]; all genotype): 2.0 fold
- Cmax fold increase, pravastatin plus CsA over pravastatin plus placebo ([2]; all genotype (N = 16)): 2.2 fold
- ratio of mean AUC in SLCO1B1 c.521‐CC to c.521TT [2]: 4.0 fold
- C0 [2, 7]: 68 ± 26 nM
- C0 [2, 8]: 55 ± 44 nM
- Cmax [2, 9]: 149 ± 71 nM
- Cavg [2, 10]: 144 ± 13.9 nM
- Cavg [2, 11]: 64.5 ± 26.4 nM
- Cavg [2, 12]: 87.6 ± 29.5 nM
- Cavg [2, 4]: 86.0 ± 35.8 nM
- Cmax ([2]; pravastatin + placebo (N = 16)): 94.7 ± 118 nM
- Cavg [2, 13]: 171 ± 53.7 nM
- Cavg [2, 14]: 34.6 ± 10.4 nM
- Cavg [2, 5]: 38 ± 13.7 nM
- increase in plasma concentration, Cmax over baseline ([2]; pravastatin plus placebo, individuals homozygous c.521‐CC): at least twofold
- time of peak plasma level ([2]; two individuals c.521‐CC): around 3 hours and 3.0 hours
- AUC(0-t) (OATP1B1; [10]): 1.55 µM·h
- AUC(0-t) (OATP1B1; [11]): 0.652 ± 0.246 µM·h
- AUC(0-t) (OATP1B1; [12]): 0.927 ± 0.282 µM·h
- AUC(0-t) (OATP1B1; [13]): 1.8 µM·h
- AUC(0-t) (OATP1B1; [14]): 0.386 ± 0.084 µM·h
- C0 (OATP1B1; pravastatin + placebo, CC): 131 ± 48.9 nM
- C0 (OATP1B1; pravastatin + placebo, TC): 31.3 ± 5 nM
- C0 (OATP1B1; pravastatin + placebo, TT): 44 ± 24.5 nM
Compound: O=C(O)CCCCCCCCCCCCC(=O)O [TDA, tetradecanedioic acid]
- Cavg [2, 6]: 53.3 ± 49.3 nM and 53.3 ± 49.3****^, ^b nM

- ratio of mean AUC0→12 in SLCO1B1 c.521CC and c.521TT [1]: 1.2 fold
Compound: 3′α‐hydroxy‐pravastatin
- inhibitory activity relative to the parent compound [3]: one‐tenth to one‐fortieth

- AUClast [2, 10]: 0.0276 ± 0.0084 µM·h
- AUClast [2, 11]: 0.0165 ± 0.0057 µM·h
- AUClast [2, 12]: 0.0118 ± 0.0023 µM·h
- AUClast [2, 4]: 0.0155 ± 0.0067 µM·h
- AUClast [2, 13]: 0.0178 ± 0.0032 µM·h
- AUClast [2, 14]: 0.0098 ± 0.0033 µM·h
- AUClast [2, 5]: 0.0069 ± 0.0012 µM·h
- AUClast [2, 6]: 0.0094 ± 0.0042 µM·h
- AUClast fold increase, pravastatin plus CsA over pravastatin plus placebo ([2]; CC (N = 2)): 1.5 fold
- Cavg fold increase, pravastatin plus CsA over pravastatin plus placebo ([2]; CC (N = 2)): 1.6 fold
- AUClast fold increase, pravastatin plus CsA over pravastatin plus placebo ([2]; TC (N = 6)): 1.7 fold
- Cavg fold increase, pravastatin plus CsA over pravastatin plus placebo ([2]; TC (N = 6)): 2.0 fold
- AUClast fold increase, pravastatin plus CsA over pravastatin plus placebo ([2]; TT (N = 8)): 1.7 fold
- Cavg fold increase, pravastatin plus CsA over pravastatin plus placebo ([2]; TT (N = 8)): 1.9 fold
- Cavg fold increase, pravastatin plus CsA over pravastatin plus placebo ([2]; all genotype): 1.9 fold
- Cmax fold increase, pravastatin plus CsA over pravastatin plus placebo ([2]; all genotype (N = 16)): 2.2 fold
- ratio of mean AUC in SLCO1B1 c.521‐CC to c.521TT [2]: 2.6 fold
- C0 [2, 7]: BLOQ in most samples
- C0 [2, 8]: BLOQ in most samples
- Cmax [2, 9]: 2.16 ± 0.71 nM
- Cavg [2, 10]: 2.50 ± 0.68 nM
- Cavg [2, 11]: 1.67 ± 0.33 nM
- Cavg [2, 12]: 1.15 ± 0.28 nM
- Cavg [2, 4]: 1.51 ± 0.56 nM
- Cmax ([2]; pravastatin + placebo (N = 16)): 1.04 ± 0.45 nM
- Cavg [2, 14]: 0.88 ± 0.26 nM
- Cavg [2, 5]: 0.6 ± 0.1 nM
Compound: coproporphyrin I [CP‐I]
- baseline (C0) level ([2]; 16 samples): below the levels of quantification for 12 of 16 samples
- Cavg [2, 6]: 0.83 ± 0.36 nM and 0.83 ± 0.36****^, ^b nM
